# From patent US20040251215A1, “Method for killing organicsms in the course of conveying ballast water in ships and apparatus thereof” (priority 2003, published 2004)
# How the values were obtained:
# [1] = test system: bacteria, single cell alga, protozoan, spore and vibrio; experiment: Time and concentration needed to kill microorganisms in ballast water by hydroxyl radical; type: cell-based
# Description: (§1) Free radical generator of the present invention was made of anode electrode 22, cathode electrode 21, dielectric substance layer 24 and septum 23. Strong electric field of 250-600 Td was formed between the anode electrode and cathode electrode. […] The undissolved free radicals were removed by residual free radical treater 13. High frequency electric source made from transformer 5, invertor 6 and controller 7 was used to supply electric source to free radical generator 3. Free radical concentration measuring apparatus 4 was used to measure the concentration of free radical produced while the hydroxyl radical solution concentration analyzer 14 was used to measure the concentration of hydroxyl radical solution. Untreated ballast water was suctioned by pump 19 into conveying pipe and filtered by filter 16 (FIG. 2). A part of them was taken out and was processed by free radical generating unit 15 into hydroxyl radical solution which was then mixed in liquid-liquid mixer 20 with ballast water conveyed in pipe and flowed through flow meter 17 and valve 18. The effectiveness of the elimination of single cell alga, protozoans and bacteria was illustrated in Table 1.
# The time necessary for elimination of single cell alga, protozoan, bacteria and the like was extremely short. […]
# [2] = test system: Protozoan; experiment: Test of elimination of protozoan in seawater (ballast water) by hydroxyl radical solution; type: cell-based; settings: OH concentration 0.63 mg/L
# Description: as §1
# [3] = test system: single cell alga; experiment: Test of elimination of single cell alga in seawater (ballast water) by hydroxyl radical solution; type: cell-based; settings: OH concentration 0.63 mg/L
# Description: as §1
# [4] = test system: Bacteria; experiment: Test of elimination of bacteria in seawater (ballast water) by hydroxyl radical solution; type: cell-based; settings: OH concentration 0.63 mg/L
# Description: as §1
# [5] = Decomposition of residual hydroxyl radicals; type: physicochemical; settings: treated ballast water
# Description: The residual hydroxyl radicals were decomposed after 20 min into H2O, O2 and the like and there was no any residual chemical reagent left. Therefore the method for treating ballast water by using hydroxyl radicals solution is a green effective method.
substance,measurement,setting,value
hydroxyl radical [OH],time needed for elimination of microorganism,"[1]; from curve of time against lethality, FIG. 4",about 4 s
same,concentration at which killing is feasible,"[1]; single cell alga, protozoan, spore, bacteria, vibrio in ballast water",0.6 to 0.7 mg/L
same,Lethality,[2],100%
same,Microorganism concentration,[2]; untreated 4.4 × 10^4,not detectable
same,Lethality,[3],100%
same,Microorganism concentration,[3]; untreated 6.0 × 10^4,not detectable
same,Lethality,[4],100%
same,Microorganism concentration,[4]; untreated 1.9 × 10^5,not detectable
same,"time after which residual hydroxyl radicals were decomposed into H2O, O2",[5],20 min
